# In EPA's ToxRefDB 2:
# Legend:
# [1] = test system: rat; conditions: Prenatal developmental toxicity study, sprague dawley, Oral, Gavage/Intubation, dose end: 15 GD
# [2] = test system: rabbit; conditions: Prenatal developmental toxicity study, new zealand white, Oral, Gavage/Intubation, dose end: 18 GD
# [3] = test system: rat; conditions: Prenatal developmental toxicity study, sprague dawley, Inhalation, Whole-Body, dose end: 15 GD
# [4] = test system: rat; conditions: Prenatal developmental toxicity study, fischer, Inhalation, Whole-Body, dose end: 15 GD
# [5] = test system: rabbit; conditions: Prenatal developmental toxicity study, dutch, Inhalation, Whole-Body, dose end: 18 GD
# [6] = test system: rabbit; conditions: Prenatal developmental toxicity study, new zealand white, Inhalation, Whole-Body, dose end: 18 GD
# [7] = test system: rat; conditions: Prenatal developmental toxicity study, sprague dawley, Inhalation, Whole-Body, dose end: 15 GD; remark: listed apart in the source
# [8] = test system: rabbit; conditions: Prenatal developmental toxicity study; himalayan; Inhalation; Whole-Body; dose end: 29 GD; group: developmental; developmental / developmental malformation / heart / adhesions + developmental / developmental malformation / kidney / dilatation
# [9] = test system: rat; conditions: Prenatal developmental toxicity study; wistar; Inhalation; Whole-Body; dose end: 20 GD; group: developmental; developmental / developmental malformation / heart / dilatation
# [10] = test system: rat; conditions: Prenatal developmental toxicity study, sprague dawley, Oral, Gavage/Intubation, dose end: 20 GD
# [11] = test system: rabbit; conditions: Prenatal developmental toxicity study, new zealand white, Oral, Gavage/Intubation, dose end: 28 GD
# [12] = test system: rat; conditions: Multigenerational reproductive toxicity study, wistar, Oral, Feed, dose end: 2 generation
# [13] = test system: rat; conditions: Combined chronic toxicity/carcinogenicity, fischer, Oral, Feed, dose end: 24 month
# [14] = test system: dog; conditions: Chronic toxicity, beagle, Oral, Feed, dose end: 52 week
# [15] = test system: mouse; conditions: Carcinogenicity, cd1, Oral, Feed, dose end: 90 week
# [16] = test system: mouse; conditions: Multigenerational reproductive toxicity study, cd1, Oral, Water, dose end: 2 generation
# [17] = group: developmental, developmental / developmental malformation / bone / bent + developmental / developmental malformation / bone / full supernumerary + …
# [18] = group: maternal, systemic / in life observation / body weight / body weight gain
# [19] = group: maternal, systemic / in life observation / body weight / body weight gain + systemic / in life observation / clinical signs / urine staining - …
# [20] = group: developmental, developmental / developmental malformation / bone / full supernumerary
# [21] = group: maternal, systemic / in life observation / body weight / body weight gain + systemic / in life observation / food consumption / food consumption
# [22] = group: maternal, systemic / in life observation / body weight / body weight gain + systemic / in life observation / food consumption / food consumption + …
# [23] = group: developmental, developmental / developmental malformation / bone / [other] + developmental / developmental malformation / bone / fused + developmental / …
# [24] = group: developmental, developmental / developmental malformation / bone / [other] + developmental / developmental malformation / heart / [other] + systemic / in …
# [25] = group: maternal, reproductive / reproductive performance / resorptions / resorptions
# [26] = group: developmental, developmental / developmental malformation / bone / [other] + developmental / developmental malformation / bone / bipartite ossification + …
# [27] = group: developmental, developmental / developmental malformation / bone / incomplete ossification + developmental / developmental malformation / bone / unossified
# [28] = group: maternal, reproductive / reproductive performance / implantations / implantations + systemic / hematology / erythrocyte (rbc) count differential / …
# [29] = group: maternal, systemic / organ weight / liver / absolute
# [30] = group: developmental, developmental / developmental malformation / bone / delayed ossification + developmental / developmental malformation / bone / misaligned + …
# [31] = group: maternal, reproductive / reproductive performance / postimplantation loss / postimplantation loss + systemic / hematology / hemoglobin (hgb) / …
# [32] = group: developmental, developmental / developmental malformation / bone / [other] + developmental / developmental malformation / bone / absent + developmental / …
# [33] = group: maternal, reproductive / reproductive performance / estrous cycle / corpora lutea + reproductive / reproductive performance / implantations / …
# [34] = group: developmental, developmental / developmental malformation / bone / wavy + developmental / developmental malformation / general / [other] + developmental / …
# [35] = group: developmental, developmental / developmental malformation / general / [other] + systemic / in life observation / body weight / fetal weight
# [36] = group: developmental, developmental / developmental malformation / bone / incomplete ossification + developmental / developmental malformation / bone / short + …
# [37] = group: maternal, systemic / in life observation / body weight / body weight gain + systemic / in life observation / clinical signs / salivation + systemic / …
# [38] = group: developmental, developmental / developmental malformation / bone / [other] + developmental / developmental malformation / bone / extra ossification site + …
# [39] = group: offspring, developmental / offspring survival late / viability index / viability index + systemic / in life observation / body weight / offspring (pup…
# [40] = group: parental, systemic / pathology microscopic / thyroid gland / colloid content
# [41] = group: parental, systemic / pathology microscopic / thyroid gland / colloid content + systemic / organ weight / thyroid gland / absolute + systemic / organ …
# [42] = group: cholinesterase, cholinesterase / cholinesterase / cholinesterase / plasma cholinesterase (che)
# [43] = group: systemic, systemic / clinical chemistry / alanine aminotransferase (alt/sgpt) / alanine aminotransferase (alt/sgpt) + systemic / clinical chemistry / …
# [44] = group: cholinesterase, cholinesterase / cholinesterase / cholinesterase / plasma cholinesterase (che) + cholinesterase / cholinesterase / cholinesterase / …
# [45] = group: systemic, systemic / hematology / erythrocyte (rbc) count differential / erythrocyte (rbc) + systemic / hematology / hematocrit (hct) / hematocrit (…
# [46] = group: cholinesterase, cholinesterase / cholinesterase / cholinesterase / brain cholinesterase (che) + cholinesterase / cholinesterase / cholinesterase / …
# [47] = group: systemic, systemic / hematology / mean corpuscular (cell) volume (mcv) / mean corpuscular (cell) volume (mcv) + systemic / hematology / mean …
# [48] = group: offspring, systemic / in life observation / body weight / offspring (pup) weight
# [49] = group: parental, systemic / organ weight / kidney / relative to body weight + systemic / organ weight / epididymis / relative to body weight + systemic / …
smiles,measurement,setting,value
"O=C(O)COc1ccc(Cl)cc1Cl.OCCNCCO [2,4-Dichlorophenoxyacetic acid diethanolamine]",LEL,[1]; [17],75 mg/kg/day
same,LOAEL,[1]; [17],75 mg/kg/day
same,NEL,[1]; [17],15 mg/kg/day
same,NOAEL,[1]; [17],15 mg/kg/day
same,LEL,[1]; [18],75 mg/kg/day
same,LOAEL,[1]; [18],75 mg/kg/day
same,NEL,[1]; [19],15 mg/kg/day
same,NOAEL,[1]; [19],15 mg/kg/day
same,LEL,[2]; [20],60 mg/kg/day
same,LOAEL,[2]; [20],> 60 mg/kg/day
same,NEL,[2]; [20],30 mg/kg/day
same,NOAEL,[2]; [20],≥ 60 mg/kg/day
same,LEL,[2]; [21],30 mg/kg/day
same,LOAEL,[2]; [21],30 mg/kg/day
same,NEL,[2]; [22],15 mg/kg/day
same,NOAEL,[2]; [22],15 mg/kg/day
CCOCCOC(C)=O [2-Ethoxyethyl acetate],LOAEL,[3]; [23],> 600 mg/kg/day
same,NOAEL,[3]; [23],≥ 600 mg/kg/day
same,LEL,[3]; [24],130 mg/kg/day
same,NEL,[3]; [24],< 130 mg/kg/day
same,LEL,[3]; [25],390 mg/kg/day
same,LOAEL,[3]; [25],> 600 mg/kg/day
same,NEL,[3]; [25],130 mg/kg/day
same,NOAEL,[3]; [25],≥ 600 mg/kg/day
same,LOAEL,[4]; [26],> 300 ppm
same,NOAEL,[4]; [26],≥ 300 ppm
same,LEL,[4]; [27],50 ppm
same,NEL,[4]; [27],< 50 ppm
same,LOAEL,[4]; [28],> 300 ppm
same,NOAEL,[4]; [28],≥ 300 ppm
same,LEL,[4]; [29],50 ppm
same,NEL,[4]; [29],< 50 ppm
same,LOAEL,[5]; [30],> 400 ppm
same,NEL,[5]; [30],25 ppm
same,NOAEL,[5]; [30],≥ 400 ppm
same,LEL,"[5]; group: developmental, developmental / developmental malformation / bone / delayed ossification + developmental / developmental malformation / spleen / pale + …",100 ppm
same,LEL,[5]; [31],400 ppm
same,LOAEL,[5]; [31],> 400 ppm
same,NEL,[5]; [31],100 ppm
same,NOAEL,[5]; [31],≥ 400 ppm
same,LOAEL,[6]; [32],> 300 ppm
same,NEL,[6]; [32],50 ppm
same,NOAEL,[6]; [32],≥ 300 ppm
same,LEL,"[6]; group: developmental, developmental / developmental malformation / bone / incomplete ossification + developmental / developmental malformation / bone / misshapen…",100 ppm
same,LOAEL,[6]; [33],> 300 ppm
same,NEL,[6]; [33],50 ppm
same,NOAEL,[6]; [33],≥ 300 ppm
same,LEL,"[6]; group: maternal, systemic / hematology / platelet / platelet + systemic / in life observation / body weight / body weight gain + systemic / in life …",100 ppm
same,LOAEL,[7]; [34],> 600 ppm
same,NOAEL,[7]; [34],≥ 600 ppm
same,LEL,[7]; [35],130 ppm
same,NEL,[7]; [35],< 130 ppm
same,LEL,[7]; [25],390 ppm
same,LOAEL,[7]; [25],> 600 ppm
same,NEL,[7]; [25],130 ppm
same,NOAEL,[7]; [25],≥ 600 ppm
CC(C)CO [2-Methyl-1-propanol],LEL,[8],10 mg/L
same,LOAEL,[8],> 10 ppm
same,NEL,[8],2.5 ppm
same,NOAEL,[8],≥ 10 ppm
same,LEL,[9],10 ppm
same,LOAEL,[9],> 10 ppm
same,NEL,[9],2.5 ppm
same,NOAEL,[9],≥ 10 ppm
Cc1[nH]n(C)c(=O)c1C(=O)c1ccc(C(F)(F)F)cc1S(C)(=O)=O [Pyrasulfotole],LEL,[10]; [36],100 mg/kg/day
same,LOAEL,[10]; [36],100 mg/kg/day
same,NEL,[10]; [36],10 mg/kg/day
same,NOAEL,[10]; [36],10 mg/kg/day
same,LEL,[10]; [37],100 mg/kg/day
same,LOAEL,[10]; [37],100 mg/kg/day
same,NEL,[10]; [37],10 mg/kg/day
same,NOAEL,[10]; [37],10 mg/kg/day
same,LEL,[11]; [38],75 mg/kg/day
same,LOAEL,[11]; [38],75 mg/kg/day
same,NEL,[11]; [38],10 mg/kg/day
same,NOAEL,[11]; [38],10 mg/kg/day
same,LEL,[11]; [21],250 mg/kg/day
same,LOAEL,[11]; [21],250 mg/kg/day
same,NEL,[11]; [21],75 mg/kg/day
same,NOAEL,[11]; [21],75 mg/kg/day
same,LEL,[12]; [39],3.68 mg/kg/day
same,LOAEL,[12]; [39],> 354 mg/kg/day
same,NEL,[12]; [39],< 3.68 mg/kg/day
same,NOAEL,[12]; [39],≥ 354 mg/kg/day
same,LOAEL,[12]; [40],2.5 mg/kg/day
same,NOAEL,[12]; [40],< 2.5 mg/kg/day
same,LEL,[12]; [41],2.5 mg/kg/day
same,NEL,[12]; [41],< 2.5 mg/kg/day
CCCCSP(=O)(SCCCC)SCCCC [Tribufos],LEL,[13]; [42],0.2 mg/kg/day
same,LOAEL,[13]; [42],0.2 mg/kg/day
same,NEL,[13]; [42],< 0.2 mg/kg/day
same,NOAEL,[13]; [42],< 0.2 mg/kg/day
same,LEL,[13]; [43],1.8 mg/kg/day
same,LOAEL,[13]; [43],> 16.8 mg/kg/day
same,NEL,[13]; [43],0.2 mg/kg/day
same,NOAEL,[13]; [43],≥ 16.8 mg/kg/day
same,LEL,[14]; [42],0.4 mg/kg/day
same,LOAEL,[14]; [42],0.4 mg/kg/day
same,NEL,[14]; [44],0.1 mg/kg/day
same,NOAEL,[14]; [44],0.1 mg/kg/day
same,LOAEL,"[14]; group: systemic, systemic / hematology / erythrocyte (rbc) count differential / erythrocyte (rbc)",1.7 mg/kg/day
same,LEL,[14]; [45],1.7 mg/kg/day
same,NEL,[14]; [45],0.4 mg/kg/day
same,NOAEL,[14]; [45],0.4 mg/kg/day
same,LEL,[15]; [46],1.64 mg/kg/day
same,LOAEL,[15]; [46],1.64 mg/kg/day
same,NEL,[15]; [46],< 1.64 mg/kg/day
same,NOAEL,[15]; [46],< 1.64 mg/kg/day
same,LEL,[15]; [47],1.64 mg/kg/day
same,LOAEL,[15]; [47],1.64 mg/kg/day
same,NEL,[15]; [47],< 1.64 mg/kg/day
same,NOAEL,[15]; [47],< 1.64 mg/kg/day
CC(=O)OCCOCCOCCOC(C)=O [Triethylene glycol diacetate],LEL,[16]; [48],4000 mg/kg/day
same,LOAEL,[16]; [48],> 4000 mg/kg/day
same,NEL,[16]; [48],2000 mg/kg/day
same,NOAEL,[16]; [48],≥ 4000 mg/kg/day
same,NEL,"[16]; group: parental, systemic / organ weight / kidney / relative to body weight",2000 mg/kg/day
same,LEL,[16]; [49],4000 mg/kg/day
same,LOAEL,[16]; [49],> 4000 mg/kg/day
same,NOAEL,[16]; [49],≥ 4000 mg/kg/day
